In patent US9486506B2 (Novo Nordisk A/S, priority 2011, dated 2016) one finds EC50 data, which are given here for six compounds.

Molecules are shown by their SMILES. Numbered stars: 1 amine (or outer) side, 2 acyl side, 3 side chain; on linkers, the order of the positions; unused ones are H or OH. Side chains are listed from the residue outwards. Peptide text beside a SMILES is read from it. * marks the point of attachment. C20 diacid = O=C(O)CCCCCCCCCCCCCCCCCCC(=O)*; C18 diacid = O=C(O)CCCCCCCCCCCCCCCCC(=O)*; γGlu = O=C(O)[C@H](CCC(=O)[*:2])N[*:1]; AEEA = NCCOCCOCC(=O)O

The target of this assay is T1, glucagon receptor (Homo sapiens, UniProt P47871).
T1 construct: expressed in transfected cells
T1 sequence (P47871 26-477): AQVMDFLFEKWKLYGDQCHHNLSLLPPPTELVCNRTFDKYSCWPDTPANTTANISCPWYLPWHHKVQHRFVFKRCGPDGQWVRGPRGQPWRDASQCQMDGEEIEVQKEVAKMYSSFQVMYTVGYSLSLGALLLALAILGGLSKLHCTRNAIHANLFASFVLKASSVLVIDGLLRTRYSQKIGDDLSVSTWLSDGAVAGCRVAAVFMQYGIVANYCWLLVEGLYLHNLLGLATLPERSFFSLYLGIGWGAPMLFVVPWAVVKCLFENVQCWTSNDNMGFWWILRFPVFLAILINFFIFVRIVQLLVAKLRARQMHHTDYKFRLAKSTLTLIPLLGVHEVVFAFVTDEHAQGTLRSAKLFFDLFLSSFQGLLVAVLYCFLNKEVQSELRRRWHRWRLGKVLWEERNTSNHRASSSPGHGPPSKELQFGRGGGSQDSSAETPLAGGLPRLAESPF
The experiment in a line: Assay (I) Glucagon activity (cAMP biosensor, FLIPR). The class given is cell-based. The method, then: The cells (14000 per well) were incubated (37° C., 5% CO2) overnight in 384-well plates. Next day the cells were loaded with a calcium responsive dye that only distributed into the cytoplasm. Probenecid, an inhibitor of the organic anion transporter, was added to prevent the dye from leaving the cell. A PDE inhibitor was added to prevent formatted cAMP from being degraded. The plates were placed into a […] and the glucagon analogues were added. End point data were collected after 6 minutes. An increase in intracellular cAMP was proportional to an increased in calcium concentrations in the cytoplasm. When calcium was bound the dry a fluorescence signal was generated. EC50-values were calculated in Prism5.
In the case of `CC(C)C[C@H](NC(=O)[C@H](Cc1ccc(O)cc1)NC(=O)[C@H](CCCCN)NC(=O)[C@H](CO)NC(=O)[C@H](Cc1ccc(O)cc1)NC(=O)[C@H](CC(=O)O)NC(=O)[C@H](CO)NC(=O)[C@@H](NC(=O)[C@H](Cc1ccccc1)NC(=O)[C@@H](NC(=O)CNC(=O)[C@H](Cc1c[nH]cn1)NC(=O)[C@H](CO)NC(=O)[C@@H](N)Cc1c[nH]cn1)[C@@H](C)O)[C@@H](C)O)C(=O)N[C@@H](CC(=O)O)C(=O)N[C@@H](CO)C(=O)N[C@@H](CCCNC(=N)N)C(=O)N[C@@H](CCCNC(=N)N)C(=O)N[C@@H](C)C(=O)N[C@@H](CCC(N)=O)C(=O)N[C@@H](CC(=O)O)C(=O)N[C@@H](Cc1ccccc1)C(=O)N[C@H](C(=O)N[C@@H](CCCCNC(=O)CC[C@H](NC(=O)CC[C@H](NC(=O)COCCOCCNC(=O)COCCOCCNC(=O)CC[C@H](NC(=O)CCCCCCCCCCCCCCCCC(=O)O)C(=O)O)C(=O)O)C(=O)O)C(=O)N[C@@H](Cc1c[nH]c2ccccc12)C(=O)N[C@@H](CC(C)C)C(=O)N[C@@H](CC(C)C)C(=O)N[C@@H](CC(N)=O)C(=O)N[C@H](C(=O)O)[C@@H](C)O)C(C)C` [Example 5, N^ε24-[(4S)-4-carboxy-4-[[(4S)-4-carboxy-4-[[2-[2-[2-[[2-[2-[2-[[(4S)-4-carboxy-4-(17-carboxyheptadecanoylamino)butanoyl]amino]ethoxy]ethoxy]acetyl]amino]ethoxy]ethoxy]acetyl]amino]butanoyl]amino]butanoyl]-[His^3,Lys^24,Leu^27]-Glucagon], the 50% effective concentration (EC50) stood at 0.105 nM.

The compound `CC(C)C[C@H](NC(=O)[C@H](Cc1ccc(O)cc1)NC(=O)[C@H](CCCCN)NC(=O)[C@H](CO)NC(=O)[C@H](Cc1ccc(O)cc1)NC(=O)[C@H](CC(=O)O)NC(=O)[C@H](CO)NC(=O)[C@@H](NC(=O)[C@H](Cc1ccccc1)NC(=O)[C@@H](NC(=O)CNC(=O)[C@H](Cc1c[nH]cn1)NC(=O)[C@H](CO)NC(=O)[C@@H](N)Cc1c[nH]cn1)[C@@H](C)O)[C@@H](C)O)C(=O)N[C@@H](CC(=O)O)C(=O)N[C@@H](CO)C(=O)N[C@@H](CCCCN)C(=O)N[C@@H](CCCNC(=N)N)C(=O)N[C@@H](C)C(=O)N[C@@H](CCC(N)=O)C(=O)N[C@@H](CCC(=O)O)C(=O)N[C@@H](Cc1ccccc1)C(=O)N[C@H](C(=O)N[C@@H](CCCCNC(=O)CC[C@H](NC(=O)CC[C@H](NC(=O)COCCOCCNC(=O)CC[C@H](NC(=O)CCCCCCCCCCCCCCCCC(=O)O)C(=O)O)C(=O)O)C(=O)O)C(=O)N[C@@H](Cc1c[nH]c2ccccc12)C(=O)N[C@@H](CC(C)C)C(=O)N[C@@H](CC(C)C)C(=O)N[C@@H](CO)C(=O)N[C@H](C(=O)O)[C@@H](C)O)C(C)C` [Example 6, N^ε24-[(4S)-4-carboxy-4-[[(4S)-4-carboxy-4-[[2-[2-[2-[[(4S)-4-carboxy-4-(17-carboxyheptadecanoylamino)butanoyl]amino]ethoxy]ethoxy]acetyl]amino]butanoyl]amino]butanoyl]-[His^3,Lys^17,Glu^21,Lys^24,Leu^27,Ser^28]-Glucagon] (H-HSHGTFTSDYSKYLDSKRAQEFVK([γGlu-γGlu-AEEA-γGlu-C18 diacid])WLLST-OH) gave a 50% effective concentration (EC50) of 0.077 nM.

Consider `CC(C)C[C@H](NC(=O)[C@H](Cc1c[nH]c2ccccc12)NC(=O)[C@H](CCCCNC(=O)CC[C@H](NC(=O)CC[C@H](NC(=O)COCCOCCNC(=O)COCCOCCNC(=O)CC[C@H](NC(=O)CCCCCCCCCCCCCCCCC(=O)O)C(=O)O)C(=O)O)C(=O)O)NC(=O)[C@@H](NC(=O)[C@H](Cc1ccccc1)NC(=O)[C@H](CC(=O)O)NC(=O)[C@H](CCC(N)=O)NC(=O)[C@H](C)NC(=O)[C@H](CCCNC(=N)N)NC(=O)[C@H](CCCNC(=N)N)NC(=O)[C@@H](NC(=O)[C@H](CC(=O)O)NC(=O)[C@H](CC(C)C)NC(=O)[C@H](Cc1ccc(O)cc1)NC(=O)[C@H](CCCCN)NC(=O)[C@H](CO)NC(=O)[C@H](Cc1ccc(O)cc1)NC(=O)[C@H](CC(=O)O)NC(=O)[C@H](CO)NC(=O)[C@@H](NC(=O)[C@H](Cc1ccccc1)NC(=O)[C@@H](NC(=O)CNC(=O)[C@H](CCC(N)=O)NC(=O)[C@H](CO)NC(=O)[C@@H](N)Cc1c[nH]cn1)[C@@H](C)O)[C@@H](C)O)C(C)C)C(C)C)C(=O)N[C@@H](CC(C)C)C(=O)N[C@@H](CC(N)=O)C(=O)N[C@H](C(=O)O)[C@@H](C)O` [Example 7, N^ε24-[(4S)-4-carboxy-4-[[(4S)-4-carboxy-4-[[2-[2-[2-[[2-[2-[2-[[(4S)-4-carboxy-4-(17-carboxyheptadecanoylamino)butanoyl]amino]ethoxy]ethoxy]acetyl]amino]ethoxy]ethoxy]acetyl]amino]butanoyl]amino]butanoyl]-[Val^16,Lys^24,Leu^27]-Glucagon], for which the EC50 turned out to be 0.081 nM. The EC50 values of the last two compounds are within 1.5-fold of each other.

`CC[C@H](C)[C@H](NC(=O)[C@H](CC(=O)O)NC(=O)[C@H](CC(C)C)NC(=O)[C@H](Cc1ccc(O)cc1)NC(=O)[C@H](CCCCN)NC(=O)[C@H](CO)NC(=O)[C@H](Cc1ccc(O)cc1)NC(=O)[C@H](CC(=O)O)NC(=O)[C@H](CO)NC(=O)[C@@H](NC(=O)[C@H](Cc1ccccc1)NC(=O)[C@@H](NC(=O)CNC(=O)[C@H](CCC(N)=O)NC(=O)[C@H](CO)NC(=O)[C@@H](N)Cc1c[nH]cn1)[C@@H](C)O)[C@@H](C)O)C(=O)N[C@@H](CCCNC(=N)N)C(=O)N[C@@H](CCCNC(=N)N)C(=O)N[C@@H](C)C(=O)N[C@@H](CCC(N)=O)C(=O)N[C@@H](CC(=O)O)C(=O)N[C@@H](Cc1ccccc1)C(=O)N[C@H](C(=O)N[C@@H](CCCCNC(=O)CC[C@H](NC(=O)CC[C@H](NC(=O)COCCOCCNC(=O)COCCOCCNC(=O)CC[C@H](NC(=O)CCCCCCCCCCCCCCCCC(=O)O)C(=O)O)C(=O)O)C(=O)O)C(=O)N[C@@H](Cc1c[nH]c2ccccc12)C(=O)N[C@@H](CC(C)C)C(=O)N[C@@H](CC(C)C)C(=O)N[C@@H](CC(N)=O)C(=O)N[C@H](C(=O)O)[C@@H](C)O)C(C)C` [Example 8, N^ε24-[(4S)-4-carboxy-4-[[(4S)-4-carboxy-4-[[2-[2-[2-[[2-[2-[2-[[(4S)-4-carboxy-4-(17-carboxyheptadecanoylamino)butanoyl]amino]ethoxy]ethoxy]acetyl]amino]ethoxy]ethoxy]acetyl]amino]butanoyl]amino]butanoyl]-[Ile^16,Lys^24,Leu^27]-Glucagon] showed an EC50 of 0.081 nM.

The compound `CC[C@H](C)[C@H](NC(=O)[C@H](CC(C)C)NC(=O)[C@H](CC(C)C)NC(=O)[C@H](Cc1c[nH]c2ccccc12)NC(=O)[C@H](CCCCNC(=O)CC[C@H](NC(=O)CC[C@H](NC(=O)COCCOCCNC(=O)COCCOCCNC(=O)CC[C@H](NC(=O)CCCCCCCCCCCCCCCCC(=O)O)C(=O)O)C(=O)O)C(=O)O)NC(=O)[C@@H](NC(=O)[C@H](Cc1ccccc1)NC(=O)[C@H](CC(=O)O)NC(=O)[C@H](CCC(N)=O)NC(=O)[C@H](C)NC(=O)[C@H](CCCNC(=N)N)NC(=O)[C@H](CCCNC(=N)N)NC(=O)[C@H](CC(C)C)NC(=O)[C@H](CC(=O)O)NC(=O)[C@H](CC(C)C)NC(=O)[C@H](Cc1ccc(O)cc1)NC(=O)[C@H](CCCNC(=N)N)NC(=O)[C@H](CO)NC(=O)[C@H](Cc1ccc(O)cc1)NC(=O)[C@H](CC(=O)O)NC(=O)[C@H](CO)NC(=O)[C@@H](NC(=O)[C@H](Cc1ccccc1)NC(=O)[C@@H](NC(=O)CNC(=O)[C@H](CCC(N)=O)NC(=O)[C@H](CO)NC(=O)[C@@H](N)Cc1c[nH]cn1)[C@@H](C)O)[C@@H](C)O)C(C)C)C(=O)N[C@H](C(=O)O)[C@@H](C)O` [Example 18, N^ε24-[(4S)-4-carboxy-4-[[(4S)-4-carboxy-4-[[2-[2-[2-[[2-[2-[2-[[(4S)-4-carboxy-4-(17-carboxyheptadecanoylamino)butanoyl]amino]ethoxy]ethoxy]acetyl]amino]ethoxy]ethoxy]acetyl]amino]butanoyl]amino]butanoyl]-[Arg^12,Leu^16,Lys^24,Leu^27,Ile^28]-Glucagon] (H-HSQGTFTSDYSRYLDLRRAQDFVK([γGlu-γGlu-AEEA-AEEA-γGlu-C18 diacid])WLLIT-OH) registered an EC50 of 1.67 nM.

In turn, `CC(C)C[C@H](NC(=O)[C@H](CC(=O)O)NC(=O)[C@H](CC(C)C)NC(=O)[C@H](Cc1ccc(O)cc1)NC(=O)[C@H](CCCNC(=N)N)NC(=O)[C@H](CO)NC(=O)[C@H](Cc1ccc(O)cc1)NC(=O)[C@H](CC(=O)O)NC(=O)[C@H](CO)NC(=O)[C@@H](NC(=O)[C@H](Cc1ccccc1)NC(=O)[C@@H](NC(=O)CNC(=O)[C@H](CCC(N)=O)NC(=O)[C@H](CO)NC(=O)[C@@H](N)Cc1c[nH]cn1)[C@@H](C)O)[C@@H](C)O)C(=O)N[C@@H](CCCNC(=N)N)C(=O)N[C@@H](CCCNC(=N)N)C(=O)N[C@@H](C)C(=O)N[C@@H](CCC(N)=O)C(=O)N[C@@H](CC(=O)O)C(=O)N[C@@H](Cc1ccccc1)C(=O)N[C@H](C(=O)N[C@@H](CCCCNC(=O)CC[C@H](NC(=O)CC[C@H](NC(=O)COCCOCCNC(=O)COCCOCCNC(=O)CC[C@H](NC(=O)CCCCCCCCCCCCCCCCCCC(=O)O)C(=O)O)C(=O)O)C(=O)O)C(=O)N[C@@H](Cc1c[nH]c2ccccc12)C(=O)N[C@@H](CC(C)C)C(=O)N[C@@H](CC(C)C)C(=O)N[C@@H](CO)C(=O)N[C@H](C(=O)O)[C@@H](C)O)C(C)C` [Example 26, N^ε24-[(4S)-4-carboxy-4-[[(4S)-4-carboxy-4-[[2-[2-[2-[[2-[2-[2-[[(4S)-4-carboxy-4-(19-carboxynonadecanoylamino)butanoyl]amino]ethoxy]ethoxy]acetyl]amino]ethoxy]ethoxy]acetyl]amino]butanoyl]amino]butanoyl]-[Arg^12,Leu^16,Lys^24,Leu^27,Ser^28]-Glucagon] (H-HSQGTFTSDYSRYLDLRRAQDFVK([γGlu-γGlu-AEEA-AEEA-γGlu-C20 diacid])WLLST-OH) displayed a concentration giving a half-maximal response (EC50) of 1.07 nM. This EC50 lies about 1.6-fold lower than the previous one.
